From patent US11739122B2, “Glycopeptide antibiotic compounds, methods for producing the same, and uses thereof” (Academia Sinica, priority 2019, dated 2023)
In brackets after ≈: the same amount, converted by molar mass.

Columns and labels:
[1] = system: E. faecalis ATCC 29302; assay: MIC, broth microdilution; format: cell-based; conditions: EF ATCC 29302
Procedure: (§1) Determination of Minimal Inhibitory Concentration (MIC) for Vancomycin, Teicoplanin and Tei-Analogs Versus Selected Strains
(§2) MICs were determined by the broth microdilution method. Specifically, 12 Colonies of the test strain were picked up from 18-24 hour agar cultures and freshly inoculated into broth mediums until reaching the turbidity of a 0.5 McFarland standard. The broth culture was adjusted with broth medium to approximately 1×10^8 CFUmL^−1. […] The plates were incubated in 37° C. for 18-24 hours and monitored for the wells of the positive control, where cells grew, and the wells of the negative control, where wells should not grow. The MIC value was determined for the concentration of a test compound, at which there was no visible growth in the well.

[2] = system: HEK293T cells; assay: Alamar Blue cell viability assay; format: cell-based, human; conditions: up to 100 μgmL^−1; 2 and 24 h
Procedure: The Alamar Blue (AB) assay, which includes a redox indicator that changes color or emits fluorescence in response to a metabolic activity, was used to assess in vitro mammalian cell cytotoxicity (human embryonic kidney cells (HEK293T)) upon an antibiotic treatment. 2×10^5 cellsmL^−1 were allowed to adhere on 96-well plates overnight at 37° C. in a humidified incubator (5% CO2 atmosphere). Tested compounds were dissolved in 50% DMSO to make 1 mgmL^−1 of a stock solution. Cells were separately aliquoted with 5 μL of a test compound (final concentration: 100 μgmL^−1) and incubated. PBS and 50% DMSO, which was used to dissolve compounds, served as a control. Cell viability was triplicated and assessed at 2 and 24 hour time points for each test compound, on which the measurements followed the manufacturer protocol.

[3] = system: MRSA ATCC 700787; assay: In vivo efficacy, intraperitoneal MRSA infection; set-up: species or system mice; conditions: peritoneal fluid, 24 hours post-inoculation, single dose 20 mgkg^−1 IP
Procedure: (§3) In Vivo Efficacy of r6,N-Acyl-Glc Tei Analogs
(§4) Female C57BL/6 mice (6 weeks of age; about 16-19 g, 3-5 mice per group) were intraperitoneally inoculated with 300 μL of MRSA ATCC 700787 suspension (about 10^7 CFUmL^−1). For intranasal A. baumannii (ATCC 19606) inoculation, mice were anesthetized, and inoculated intranasally with about 10^7-10^8 CFUmL^−1 A. baumannii in 50 μL of PBS. Treatments were started 1 hour after the bacterial challenge. The dose administration to mice was set as follows: teicoplanin (1) or r6,C8-Tei analog (14) 20 mgkg^−1 was intraperitoneally injected to MRSA-infected mice; amikacin (15 mgkg^−1), teicoplanin (1) (30 mgkg^−1), kanamycin (30 mgkg^−1) or r1,Me2-r6,guanidino-C8 analog (24) (30 mgkg^−1) was intraperitoneally injected to AB-infected mice. To assess bacteraemia, the test animals were sacrificed to collect 1 mL of peritoneal fluid (PF) for MRSA counting or the lungs were lavaged to collect 0.6 mL bronchoalveolar lavage (BAL) fluid for A. baumannii counting.
For MRSA, mice were inoculated intraperitoneally (IP) with 0.3 mL of MRSA ATCC 700787 suspension (about 10^7 CFUmL^−1). […] For the saline treated control, bacterial count was calculated (about 7.5 log CFUmL^−1, FIG. 4A). […]

[4] = system: A. baumannii ATCC 19606; assay: In vivo efficacy, intranasal A. baumannii infection; set-up: species or system mice; conditions: BAL fluid, 24 hours post-inoculation
Procedure: as §3, §4
For AB (ATCC 19606), female C57BL/6 mice were first anesthetized by intraperitoneal injection of zoletil and then intranasally inoculated with 50 μL of bacteria in a PBS solution (about 10^7-10^8 CFUmL^−1). The treatment started 1 hour post-infection with a single dose of compound 24 (30 mgkg^−1), compound 1 (30 mgkg^−1), amikacin (15 mgkg^−1), or kanamycin (30 mgkg^−1), where saline/compound 1 and amikacin/kanamycin respectively served as negative and positive controls. To assess the density of bacteraemia, the lungs of mice were lavaged to collect 0.6 mL bronchoalveolar lavage (BAL) fluid from each mouse at 24 hours post-inoculation. For saline/compound 1 treated controls, the bacterial load was counted (about 4 log CFUmL^−1, FIG. 4B), where the bacterial load was reduced by 0.5 or 1 log CFUmL^−1 with the treatment of amikacin/kanamycin or compound 24, respectively.

[5] = system: VRE ATCC 700802 (vanB); assay: MIC, broth microdilution; format: cell-based, enterococci; conditions: VRE ATCC 700802 (vanB)
Procedure: as §1, §2

[6] = system: VRE ATCC 700425 (vanC); assay: MIC, broth microdilution; format: cell-based, enterococci; conditions: VRE ATCC 700425 (vanC)
Procedure: as §1, §2

[7] = system: VRE ATCC 700221 (vanA); assay: MIC, broth microdilution; format: cell-based, enterococci; conditions: VRE ATCC 700221 (vanA)
Procedure: as §1, §2

[8] = system: A. baumannii ATCC 19606; assay: MIC, broth microdilution; format: cell-based, Acinetobacter baumannii
Procedure: as §1, §2

[9] = system: MRSA ATCC BAA-38; assay: MIC, broth microdilution; format: cell-based, Staphylococcus aureus; conditions: MRSA ATCC BAA-38
Procedure: as §1, §2

[10] = system: S. aureus ATCC 29213; assay: MIC, broth microdilution; format: cell-based, Staphylococcus aureus; conditions: SA ATCC 29213
Procedure: as §1, §2

[11] = system: MRSA ATCC 700698 hVISA; assay: MIC, broth microdilution; format: cell-based, Staphylococcus aureus; conditions: MRSA ATCC 700698 hVISA
Procedure: as §1, §2

[12] = system: MRSA ATCC BAA-39; assay: MIC, broth microdilution; format: cell-based, Staphylococcus aureus; conditions: MRSA ATCC BAA-39
Procedure: as §1, §2

[13] = system: MRSA ATCC 700789 VRSA; assay: MIC, broth microdilution; format: cell-based, Staphylococcus aureus; conditions: MRSA ATCC 700789 VRSA
Procedure: as §1, §2

[14] = system: MRSA ATCC BAA-44; assay: MIC, broth microdilution; format: cell-based, Staphylococcus aureus; conditions: MRSA ATCC BAA-44
Procedure: as §1, §2

[15] = system: MRSA ATCC 43300; assay: MIC, broth microdilution; format: cell-based, Staphylococcus aureus; conditions: MRSA ATCC 43300
Procedure: as §1, §2

[16] = system: MRSA ATCC 700787 VRSA; assay: MIC, broth microdilution; format: cell-based, Staphylococcus aureus
Procedure: as §1, §2

[17] = system: MRSA ATCC 700787; assay: Thin-section TEM, cell wall morphology; format: cell-based, Staphylococcus aureus
Procedure: Thin-Section Transmission Electron Microscopy (TEM)
An overnight cultured MRSA ATCC 700787, VRE ATCC 700221 or A. baumannii ATCC 19606 was individually sub-cultured into a fresh medium. Bacteria at the exponential phase were treated with a given test compound at a concentration of 4×MIC for 1-4 hour at 37° C. and followed by wash and resuspension in PBS. Bacteria cells for the TEM analysis were prepared as follows: Cells were fixed with 2.5% glutaraldehyde for 30 minutes. After the fixation, cells were washed twice with PBS and fixed with 1% osmium tetraoxide for another 30 minutes. All the buffer was removed with distilled water. The cells were then stained with 1% uranyl acetate and dehydrated with a graded ethanol solution. Cells were embedded in resin. Finally, each sample was cut into thin slices of approximately 90 nm with a glass knife and stained with uranyl acetate. The images of bacterial morphological were recorded.
The cell wall/membrane apparently is the targets, while the extent of damage depends on what compound imposes on the strain. […] Cell wall thickening has been a common phenotype in clinical MRSA isolates, which may well be a phenotypic determinant for VRSA. The systemic cell-wall damage may account for the cell-wall biosynthesis crippled all over the cell surface in cell-wall thickening strains, thus leading cells to lysis as a result of the osmotic pressure of cytoplasm.

[18] = system: AB ATCC 19606; assay: Minimal bactericidal concentration (MBC); format: cell-based, Acinetobacter baumannii
Procedure: (§5) Minimal Bactericidal Concentration (MBC) Determination
(§6) The MBC test is an extension of the MIC examination. MBC was determined by performing subcultures on antibiotic-free agar from both the well where there was no visible growth at the MIC of a tested antibiotic and from the positive control well (with inoculum but without compounds). The plates were incubated at 37° C. for 18-24 hours. The MBC was taken as the lowest concentration of the test compound that results in more than 99.9% reduction of viable bacteria. If MBC was one or two dilutions above a given MIC value (MBC/MIC ratio was less than or equal to four), the antibiotic was considered bactericidal against the test organism.

[19] = system: A. baumannii ATCC 19606; assay: Thin-section TEM, cell wall morphology; format: cell-based, Acinetobacter baumannii; conditions: AB ATCC 19606; 24 50 μM, colistin 3.2 μM, combination 25 μM each
[20] = system: MRSA ATCC 700787; assay: Minimal bactericidal concentration (MBC); format: cell-based, Staphylococcus aureus
Procedure: as §5, §6

[21] = A. baumannii ATCC 19606, Table 3, first figure of cell
[22] = A. baumannii ATCC 19606, Table 3, second figure of cell

| Molecule | MIC [1] | cytotoxicity to HEK293T cells [2] | MIC [5] | MIC [6] | MIC [7] | MIC [8, 21] | MIC [8, 22] | MIC [10] | MIC [11] | MIC ([16]; MRSA ATCC 700787 VRSA) | also measured |
| --- | --- | --- | --- | --- | --- | --- | --- | --- | --- | --- | --- |
| teicoplanin [Compound 1, reference compound] | 0.125 µg/mL | did not exhibit any observable toxicity | 0.5 µg/mL | 1 µg/mL | >128 µg/mL | 100 µM | 187.97 µg/mL | 0.25 µg/mL | 4 µg/mL | 8 µg/mL | bacterial load reduced by [3]: 1.5 log CFUmL^−1; bacterial load ([4]; 30 mgkg^−1): about 4 log CFUmL^−1; MIC [9]: 0.25 µg/mL; MIC [12]: 0.5 µg/mL; MIC [13]: 4 µg/mL; MIC [14]: 0.5 µg/mL; MIC [15]: 0.25 µg/mL; cell wall morphology by TEM [17]: loose |
| CN(C)[C@H]1C(=O)N[C@@H]2Cc3ccc(c(Cl)c3)Oc3cc4cc(c3O)Oc3ccc(cc3Cl)[C@@H](O[C@@H]3O[C@H](CO)[C@@H](O)[C@H](O)[C@H]3NC(=O)CCCCCCCNC(=N)N)[C@@H]3NC(=O)[C@H](NC(=O)[C@@H]4NC(=O)[C@@H](NC2=O)c2cc(O)cc(c2)Oc2cc1ccc2O)c1ccc(O)c(c1)-c1c(O)cc(O)cc1[C@@H](C(=O)O)NC3=O [Compound 24, r1,Me2-r6,C8-guanidino-Tei] | 0.5 µg/mL (≈ 0.318 µM) | did not exhibit any observable toxicity | 4 µg/mL (≈ 2.55 µM) | 8 µg/mL (≈ 5.09 µM) | >16 µg/mL | 25 µM | 39.24 µg/mL | 0.5 µg/mL (≈ 0.318 µM) | 0.031 µg/mL (≈ 0.0197 µM) | 0.016 µg/mL (≈ 0.0102 µM) | MBC [18]: 39.24 µg/mL (≈ 25 µM); MBC/MIC [18]: 1; bacterial load reduced by ([4]; 24 and kanamycin 30, amikacin 15 mgkg^−1): 1 log CFUmL^−1; cell membrane/cell wall morphology by TEM [19]: intactness of cell membrane/cell wall was severely damaged; MIC on AB ([8]; A. baumannii ATCC 19606): 39.24 µg/mL (≈ 25 µM); MIC ([8]; AB ATCC 19606, Table 4): 39.24 µg/mL; MIC ([16]; MRSA ATCC 700787, Table 4): 0.016 µg/mL (≈ 0.0102 µM); MBC [20]: 0.031 µg/mL (≈ 0.0197 µM); MBC/MIC [20]: 2 |
